Literature values, collected in US6946461B2, “Imidazolophthalazine derivatives as ligands for GABAA receptors” (Merck Sharp & Dohme Ltd., priority 2000, dated 2005).

How the values were obtained:
[1] = in vivo
[2] = system: spatial learning; details: reported by McNamara and Skelton

Compound: COC(=O)c1cc2c(cn1)[nH]c1ccccc12 [β-CCM]
- proconvulsant effect [1]: proconvulsant
- spatial learning in the Morris watermaze [2]: enhanced spatial learning
